Experimental data published in patent publication US20250115654A1, “PHARMACEUTICAL COMPOSITION OF GLP-1 RECEPTOR AND GIP RECEPTOR DUAL AGONIST, AND USE THEREOF” (FUJIAN SHENGDI PHARMACEUTICAL CO., LTD., priority 2021, published 2025).
Numbered stars: 1 amine (or outer) side, 2 acyl side, 3 side chain; on linkers, the order of the positions; unused ones are H or OH. Square brackets hold non-standard residues; d marks the D form. Side chains are listed from the residue outwards. Peptide text beside a SMILES is read from it. * marks the point of attachment. C20 diacid = O=C(O)CCCCCCCCCCCCCCCCCCC(=O)*; γGlu = O=C(O)[C@H](CCC(=O)[*:2])N[*:1]; AEEA = NCCOCCOCC(=O)O; Aib = CC(C)(N)C(=O)O

Experiments:
[1] = system: diet-induced-obesity mice; experiment: Body weight of diet-induced-obesity mice, subcutaneous administration once every 3 days; type: in vivo, C57BL/6 mice; conditions: for rate of change in body weight: 100 nmol/kg
db/db mice = experiment: Glucose metabolism level of db/db mice (fasting and random blood glucose, glycated hemoglobin); type: in vivo, C57BL/KsJ-db/db mice; conditions: for Glycated hemoglobin (%, mean ± SD): end of experiment day 28
Experimental: Each administration group had 10 db/db mice. According to the experimental design, tail vein blood was collected by needle pricking on days 0, 7, 14, 21, and 28 and determined for fasting blood glucose levels with a glucometer and glucose dipsticks, and the mice were fasted 6 h prior to the blood collection at each time point. Tail vein blood was collected by needle pricking on days 3, 10, 17, 24, and 27 and randomly determined for blood glucose levels with a glucometer. Finally, at the end of the experiment on day 28, all the animals in the administration groups were subjected to 2-5% isoflurane inhalation anesthesia, and 100 μL of whole blood was collected through the orbit of each mouse using an EDTA-K2 anticoagulation tube and used for the determination of glycated hemoglobin.

CC[C@H](C)[C@H](NC(=O)[C@H](CCCCN)NC(=O)[C@H](CCC(=O)O)NC(=O)[C@H](CCCCNC(=O)COCCOCCNC(=O)COCCOCCNC(=O)CC[C@H](NC(=O)CCCCCCCCCCCCCCCCCCC(=O)O)C(=O)O)NC(=O)[C@H](Cc1ccc(O)cc1)NC(=O)[C@@H](NC(=O)[C@H](CO)NC(=O)[C@H](Cc1ccc(O)cc1)NC(=O)[C@H](CC(=O)O)NC(=O)[C@H](CO)NC(=O)[C@@H](NC(=O)[C@H](Cc1ccccc1)NC(=O)[C@@H](NC(=O)CNC(=O)[C@H](CCC(=O)O)NC(=O)C(C)(C)NC(=O)[C@@H](N)Cc1ccc(O)cc1)[C@@H](C)O)[C@@H](C)O)[C@@H](C)CC)C(=O)N[C@@H](C)C(=O)N[C@@H](C)C(=O)N[C@@H](CCC(N)=O)C(=O)N[C@@H](CCC(=O)O)C(=O)N[C@@H](Cc1ccccc1)C(=O)N[C@H](C(=O)N[C@@H](CC(N)=O)C(=O)N[C@@H](Cc1c[nH]c2ccccc12)C(=O)N[C@@H](CC(C)C)C(=O)N[C@@H](CC(C)C)C(=O)N[C@@H](C)C(=O)NCC(=O)NCC(=O)N1CCC[C@H]1C(=O)N[C@@H](CO)C(=O)N[C@@H](CO)C(=O)NCC(=O)N[C@@H](C)C(=O)N1CCC[C@H]1C(=O)N1CCC[C@H]1C(=O)N1CCC[C@H]1C(=O)N[C@@H](CO)C(N)=O)C(C)C [Compound 18#] (H-Y[Aib]EGTFTSDYSIYK([AEEA-AEEA-γGlu-C20 diacid])EKIAAQEFVNWLLAGGPSSGAPPPS-NH2)
rate of change in body weight ([1]; day 0 (before administration)): 0% | rate of change in body weight ([1]; day 1 after administration): −6.3 ± 0.5% | rate of change in body weight ([1]; day 2 after administration): −10.9 ± 0.8 % | rate of change in body weight ([1]; day 3 after administration): −13.2 ± 1 % | rate of change in body weight ([1]; day 4 after administration): −15.7 ± 0.9 % | rate of change in body weight ([1]; day 5 after administration): −19.2 ± 1.3 % | rate of change in body weight ([1]; day 6 after administration): −21.8 ± 2.3 % | rate of change in body weight ([1]; day 7 after administration): −24.7 ± 3.3 % | rate of change in body weight ([1]; day 8 after administration): −27.6 ± 3.7 % | rate of change in body weight ([1]; day 9 after administration): −29.6 ± 4.7 % | rate of change in body weight ([1]; day 10 after administration): −31.6 ± 5.3 % | rate of change in body weight ([1]; day 11 after administration): −33.7 ± 6.3 % | rate of change in body weight ([1]; day 12 after administration): −34.4 ± 7.1 % | rate of change in body weight ([1]; day 13 after administration): −35.6 ± 6.2 % | rate of change in body weight ([1]; day 14 after administration): −36.7 ± 5.7 % | rate of change in body weight ([1]; day 15 after administration): −35.7 ± 5.6 % | rate of change in body weight ([1]; day 17 after administration): −38.2 ± 6.2 % | rate of change in body weight ([1]; day 18 after administration): −37.8 ± 6.5 % | rate of change in body weight ([1]; day 19 after administration): −38.5 ± 6.5 % | rate of change in body weight ([1]; day 20 after administration): −39 ± 6.5 % | rate of change in body weight ([1]; day 21 after administration): −37.4 ± 6.6 % | rate of change in body weight ([1]; day 22 after administration): −38.3 ± 6.2 % | rate of change in body weight ([1]; day 23 after administration): −38 ± 5.9 % | rate of change in body weight ([1]; day 24 after administration): −36.8 ± 5.8 % | rate of change in body weight ([1]; day 25 after administration): −38.6 ± 5.7 % | rate of change in body weight ([1]; day 26 after administration): −38.9 ± 6 % | rate of change in body weight ([1]; day 27 after administration): −36.8 ± 5.3 % | rate of change in body weight ([1]; day 28 after administration): −37.9 ± 5.7 % | body weight-reducing effect on high-fat food-induced-obesity mice ([1]; doses of 3, 10 and 100 nmol/kg): significant body weight-reducing effect | Concentration of fasting blood glucose (mMol/L, mean ± SD) (db/db mice; 10 nmol/kg, Day 0): 14.77 ± 1.30 mmol/L | Concentration of random blood glucose (mMol/L, mean ± SD) (db/db mice; 10 nmol/kg, Day 0): 20.42 ± 1.56 mmol/L | Concentration of fasting blood glucose (mMol/L, mean ± SD) (db/db mice; 10 nmol/kg, Day 7): 6.05 ± 0.42 mmol/L | Concentration of random blood glucose (mMol/L, mean ± SD) (db/db mice; 10 nmol/kg, Day 10): 20.66 ± 1.48 mmol/L | Concentration of fasting blood glucose (mMol/L, mean ± SD) (db/db mice; 10 nmol/kg, Day 14): 6.30 ± 0.46 mmol/L | Concentration of random blood glucose (mMol/L, mean ± SD) (db/db mice; 10 nmol/kg, Day 17): 18.91 ± 1.33 mmol/L | Concentration of fasting blood glucose (mMol/L, mean ± SD) (db/db mice; 10 nmol/kg, Day 21): 7.89 ± 0.81 mmol/L | Concentration of random blood glucose (mMol/L, mean ± SD) (db/db mice; 10 nmol/kg, Day 24): 21.17 ± 2.07 mmol/L | Concentration of fasting blood glucose (mMol/L, mean ± SD) (db/db mice; 10 nmol/kg, Day 28): 9.41 ± 0.97 mmol/L | Glycated hemoglobin (%, mean ± SD) (db/db mice; 10 nmol/kg): 4.71 ± 0.23 % | Concentration of fasting blood glucose (mMol/L, mean ± SD) (db/db mice; 30 nmol/kg, Day 0): 14.13 ± 1.32 mmol/L | Concentration of random blood glucose (mMol/L, mean ± SD) (db/db mice; 30 nmol/kg, Day 0): 16.73 ± 1.59 mmol/L | Concentration of fasting blood glucose (mMol/L, mean ± SD) (db/db mice; 30 nmol/kg, Day 7): 6.21 ± 0.26 mmol/L | Concentration of random blood glucose (mMol/L, mean ± SD) (db/db mice; 30 nmol/kg, Day 10): 15.88 ± 1.86 mmol/L | Concentration of fasting blood glucose (mMol/L, mean ± SD) (db/db mice; 30 nmol/kg, Day 14): 6.40 ± 0.57 mmol/L | Concentration of random blood glucose (mMol/L, mean ± SD) (db/db mice; 30 nmol/kg, Day 17): 17.30 ± 1.17 mmol/L | Concentration of fasting blood glucose (mMol/L, mean ± SD) (db/db mice; 30 nmol/kg, Day 21): 7.03 ± 0.52 mmol/L | Concentration of random blood glucose (mMol/L, mean ± SD) (db/db mice; 30 nmol/kg, Day 24): 17.43 ± 1.92 mmol/L | Concentration of fasting blood glucose (mMol/L, mean ± SD) (db/db mice; 30 nmol/kg, Day 28): 9.68 ± 1.03 mmol/L | Glycated hemoglobin (%, mean ± SD) (db/db mice; 30 nmol/kg): 4.53 ± 0.17 % | Concentration of fasting blood glucose (mMol/L, mean ± SD) (db/db mice; 100 nmol/kg, Day 0): 14.67 ± 1.46 mmol/L | Concentration of random blood glucose (mMol/L, mean ± SD) (db/db mice; 100 nmol/kg, Day 0): 9.11 ± 1.25 mmol/L | Concentration of fasting blood glucose (mMol/L, mean ± SD) (db/db mice; 100 nmol/kg, Day 7): 5.85 ± 0.33 mmol/L | Concentration of random blood glucose (mMol/L, mean ± SD) (db/db mice; 100 nmol/kg, Day 10): 12.34 ± 1.12 mmol/L | Concentration of fasting blood glucose (mMol/L, mean ± SD) (db/db mice; 100 nmol/kg, Day 14): 6.25 ± 0.32 mmol/L | Concentration of random blood glucose (mMol/L, mean ± SD) (db/db mice; 100 nmol/kg, Day 17): 11.89 ± 1.15 mmol/L | Concentration of fasting blood glucose (mMol/L, mean ± SD) (db/db mice; 100 nmol/kg, Day 21): 6.13 ± 0.19 mmol/L | Concentration of random blood glucose (mMol/L, mean ± SD) (db/db mice; 100 nmol/kg, Day 24): 11.51 ± 0.95 mmol/L | Concentration of fasting blood glucose (mMol/L, mean ± SD) (db/db mice; 100 nmol/kg, Day 28): 7.89 ± 0.41 mmol/L | Glycated hemoglobin (%, mean ± SD) (db/db mice; 100 nmol/kg, listed as 18#): 3.78% | Glycated hemoglobin (%, mean ± SD) (db/db mice; 100 nmol/kg, listed as #18): 3.78 ± 0.13 %
